Source: ChEMBL document CHEMBL4373641, “Synthesis and direct comparison of the anticancer activities of phomopsolides D and E and two 7-oxa-/7-aza-analogues” (Medchemcomm, 2019)

What was measured:
Assay type in all cases: functional, cell-based
CCRF-CEM = experiment: Antiproliferative activity against human CCRF-CEM cells assessed as reduction in cell viability after 48 hrs by SRB assay
HOP-92 = experiment: Antiproliferative activity against human HOP92 cells assessed as reduction in cell viability after 48 hrs by SRB assay; conditions: HOP-92, 48 h
T47D = experiment: Antiproliferative activity against human T47D cells assessed as reduction in cell viability after 48 hrs by SRB assay
SK-OV-3 = experiment: Antiproliferative activity against human SKOV3 cells assessed as reduction in cell viability after 48 hrs by SRB assay; conditions: SK-OV-3, 48 h
U-251 = experiment: Antiproliferative activity against human U251 cells assessed as reduction in cell viability after 48 hrs by SRB assay; conditions: U-251, 48 h
OVCAR-3 = experiment: Antiproliferative activity against human OVCAR3 cells assessed as reduction in cell viability after 48 hrs by SRB assay; conditions: OVCAR-3, 48 h
MDA-MB-435 = experiment: Antiproliferative activity against human MDA-MB-435 cells assessed as reduction in cell viability after 48 hrs by SRB assay; conditions: MDA-MB-435, 48 h
MDA-MB-231 = experiment: Antiproliferative activity against human MDA-MB-231 cells assessed as reduction in cell viability after 48 hrs by SRB assay; conditions: MDA-MB-231, 48 h
DU-145 = experiment: Antiproliferative activity against human DU145 cells assessed as reduction in cell viability after 48 hrs by SRB assay; conditions: DU-145, 48 h
COLO 205 = experiment: Antiproliferative activity against human COLO205 cells assessed as reduction in cell viability after 48 hrs by SRB assay; conditions: COLO 205, 48 h
SNB-75 = experiment: Antiproliferative activity against human SNB75 cells assessed as reduction in cell viability after 48 hrs by SRB assay; conditions: SNB-75, 48 h
786-0 = experiment: Antiproliferative activity against human 786-0 cells assessed as reduction in cell viability after 48 hrs by SRB assay; conditions: 786-0, 48 h
KM12 = experiment: Antiproliferative activity against human KM12 cells assessed as reduction in cell viability after 48 hrs by SRB assay; conditions: KM12, 48 h
SF-539 = experiment: Antiproliferative activity against human SF539 cells assessed as reduction in cell viability after 48 hrs by SRB assay; conditions: SF-539, 48 h
SN12C = experiment: Antiproliferative activity against human SN12C cells assessed as reduction in cell viability after 48 hrs by SRB assay
OVCAR-5 = experiment: Antiproliferative activity against human OVCAR5 cells assessed as reduction in cell viability after 48 hrs by SRB assay; conditions: OVCAR-5, 48 h
IGROV-1 = experiment: Antiproliferative activity against human IGROV1 cells assessed as reduction in cell viability after 48 hrs by SRB assay; conditions: IGROV-1, 48 h
RXF 393 = experiment: Antiproliferative activity against human RXF393 cells assessed as reduction in cell viability after 48 hrs by SRB assay; conditions: RXF 393, 48 h
RPMI-8226 = experiment: Antiproliferative activity against human RPMI8226 cells assessed as reduction in cell viability after 48 hrs by SRB assay; conditions: RPMI-8226, 48 h
PC-3 = experiment: Antiproliferative activity against human PC3 cells assessed as reduction in cell viability after 48 hrs by SRB assay; conditions: PC-3, 48 h
NCI-H522 = experiment: Antiproliferative activity against human NCI-H522 cells assessed as reduction in cell viability after 48 hrs by SRB assay; conditions: NCI-H522, 48 h, pooled result: one value given for 8 cell lines, strains, targets or settings
OVCAR-8 = experiment: Antiproliferative activity against human OVCAR8 cells assessed as reduction in cell viability after 48 hrs by SRB assay; conditions: OVCAR-8, 48 h
SW-620 = experiment: Antiproliferative activity against human SW620 cells assessed as reduction in cell viability after 48 hrs by SRB assay; conditions: SW-620, 48 h
TK-10 = experiment: Antiproliferative activity against human TK10 cells assessed as reduction in cell viability after 48 hrs by SRB assay; conditions: TK-10, 48 h
HT-29 = experiment: Antiproliferative activity against human HT-29 cells assessed as reduction in cell viability after 48 hrs by SRB assay; conditions: HT-29, 48 h
ACHN = experiment: Antiproliferative activity against human ACHN cells assessed as reduction in cell viability after 48 hrs by SRB assay
HCC 2998 = experiment: Antiproliferative activity against human HCC2998 cells assessed as reduction in cell viability after 48 hrs by SRB assay; conditions: HCC 2998, 48 h
OVCAR-4 = experiment: Antiproliferative activity against human OVCAR4 cells assessed as reduction in cell viability after 48 hrs by SRB assay; conditions: OVCAR-4, 48 h
HL-60(TB) = experiment: Antiproliferative activity against human HL-60(TB) cells assessed as reduction in cell viability after 48 hrs by SRB assay; conditions: HL-60, 48 h
MDA-MB-468 = experiment: Antiproliferative activity against human MDA-MB-468 cells assessed as reduction in cell viability after 48 hrs by SRB assay; conditions: MDA-MB-468, 48 h
K562 = experiment: Antiproliferative activity against human K562 cells assessed as reduction in cell viability after 48 hrs by SRB assay; conditions: K562, 48 h
MOLT-4 = experiment: Antiproliferative activity against human MOLT4 cells assessed as reduction in cell viability after 48 hrs by SRB assay; conditions: MOLT-4, 48 h
SF-268 = experiment: Antiproliferative activity against human SF268 cells assessed as reduction in cell viability after 48 hrs by SRB assay; conditions: SF-268, 48 h
HCT-15 = experiment: Antiproliferative activity against human HCT15 cells assessed as reduction in cell viability after 48 hrs by SRB assay; conditions: HCT-15, 48 h
Hs-578T = experiment: Antiproliferative activity against human Hs 578T cells assessed as reduction in cell viability after 48 hrs by SRB assay
HCT-116 = experiment: Antiproliferative activity against human HCT116 cells assessed as reduction in cell viability after 48 hrs by SRB assay; conditions: HCT-116, 48 h
BT-549 = experiment: Antiproliferative activity against human BT549 cells assessed as reduction in cell viability after 48 hrs by SRB assay; conditions: BT-549, 48 h
UO-31 = experiment: Antiproliferative activity against human UO31 cells assessed as reduction in cell viability after 48 hrs by SRB assay; conditions: UO-31, 48 h
SNB-19 = experiment: Antiproliferative activity against human SNB19 cells assessed as reduction in cell viability after 48 hrs by SRB assay; conditions: SNB-19, 48 h
SR = experiment: Antiproliferative activity against human SR cells assessed as reduction in cell viability after 48 hrs by SRB assay
NCI/ADR-RES = experiment: Antiproliferative activity against human NCI/ADR-RES cells assessed as reduction in cell viability after 48 hrs by SRB assay
A498 = experiment: Antiproliferative activity against human A498 cells assessed as reduction in cell viability after 48 hrs by SRB assay; conditions: A498, 48 h
UACC-62 = experiment: Antiproliferative activity against human UACC62 cells assessed as reduction in cell viability after 48 hrs by SRB assay; conditions: UACC-62, 48 h, pooled result: one value given for 8 cell lines, strains, targets or settings
CAKI-1 = experiment: Antiproliferative activity against human CAKI-1 cells assessed as reduction in cell viability after 48 hrs by SRB assay; conditions: CAKI-1, 48 h
MCF7 = experiment: Antiproliferative activity against human MCF7 cells assessed as reduction in cell viability after 48 hrs by SRB assay; conditions: MCF7, 48 h
SF-295 = experiment: Antiproliferative activity against human SF295 cells assessed as reduction in cell viability after 48 hrs by SRB assay; conditions: SF-295, 48 h

`C/C=C(\C)C(=O)O[C@H]1C=CC(=O)O[C@H]1CNC(=O)[C@H](C)O` was tested, and the IC50 (CCRF-CEM) was 2 to 49 µM, the IC50 (HOP-92) was 2 to 49 µM and the IC50 (T47D) was 2 to 49 µM. For the same molecule, the IC50 (SK-OV-3) was 2 to 49 µM, the IC50 (U-251) was 2 to 49 µM and the IC50 (OVCAR-3) was 2 to 49 µM. The IC50 (MDA-MB-435) was 2 to 49 µM, the IC50 (MDA-MB-231) was 2 to 49 µM and the IC50 (DU-145) was 25 µM. For the same molecule, the IC50 (COLO 205) was 25 µM, the IC50 (SNB-75) was 2 to 49 µM and the IC50 (786-0) was 30 µM. The IC50 (KM12) was 25 µM, the IC50 (SF-539) was 2 to 49 µM and the IC50 (SN12C) was 30 µM. For the same molecule, the IC50 (OVCAR-5) was 2 to 49 µM, the IC50 (IGROV-1) was 2 to 49 µM and the IC50 (RXF 393) was 30 µM. The IC50 (RPMI-8226) was 2 to 49 µM, the IC50 (PC-3) was 25 µM and the IC50 (NCI-H522) was 27 µM. For the same molecule, the IC50 (OVCAR-8) was 2 to 49 µM, the IC50 (SW-620) was 25 µM and the IC50 (TK-10) was 30 µM. It also gave an IC50 (HT-29) of 25 µM, an IC50 (ACHN) of 30 µM and an IC50 (HCC 2998) of 25 µM. The IC50 (OVCAR-4) was 2 to 49 µM, the IC50 (HL-60(TB)) was 2 to 49 µM and the IC50 (MDA-MB-468) was 2 to 49 µM. For the same molecule, the IC50 (K562) was 2 to 49 µM, the IC50 (MOLT-4) was 2 to 49 µM and the IC50 (SF-268) was 2 to 49 µM. For the same molecule, the IC50 (HCT-15) was 25 µM, the IC50 (Hs-578T) was 2 to 49 µM and the IC50 (HCT-116) was 25 µM. For the same molecule, the IC50 (BT-549) was 2 to 49 µM, the IC50 (UO-31) was 30 µM and the IC50 (SNB-19) was 2 to 49 µM. It also gave an IC50 (SR) of 2 to 49 µM, an IC50 (NCI/ADR-RES) of 2 to 49 µM and an IC50 (A498) of 30 µM. The IC50 (UACC-62) was 28 µM, the IC50 (CAKI-1) was 30 µM and the IC50 (MCF7) was 2 to 49 µM. The IC50 (SF-295) was 2 to 49 µM.

For `C/C=C(\C)C(=O)O[C@H]1C=CC(=O)O[C@H]1CCC(=O)[C@H](C)O`, the IC50 (CCRF-CEM) was 2 to 49 µM, the IC50 (HOP-92) was 2 to 49 µM and the IC50 (T47D) was 20 µM. For the same molecule, the IC50 (SK-OV-3) was 2 to 49 µM, the IC50 (U-251) was 2 to 49 µM and the IC50 (OVCAR-3) was 2 to 49 µM. The IC50 (MDA-MB-435) was 20 µM, the IC50 (MDA-MB-231) was 20 µM and the IC50 (DU-145) was 23 µM. The IC50 (COLO 205) was 18 µM, the IC50 (SNB-75) was 2 to 49 µM and the IC50 (786-0) was 2 to 49 µM. For the same molecule, the IC50 (KM12) was 18 µM, the IC50 (SF-539) was 2 to 49 µM and the IC50 (SN12C) was 2 to 49 µM. It also gave an IC50 (OVCAR-5) of 2 to 49 µM, an IC50 (IGROV-1) of 2 to 49 µM and an IC50 (RXF 393) of 2 to 49 µM. For the same molecule, the IC50 (RPMI-8226) was 2 to 49 µM, the IC50 (PC-3) was 23 µM and the IC50 (NCI-H522) was 26 µM. For the same molecule, the IC50 (OVCAR-8) was 2 to 49 µM, the IC50 (SW-620) was 18 µM and the IC50 (TK-10) was 2 to 49 µM. It also gave an IC50 (HT-29) of 18 µM, an IC50 (ACHN) of 2 to 49 µM and an IC50 (HCC 2998) of 18 µM. The IC50 (OVCAR-4) was 2 to 49 µM, the IC50 (HL-60(TB)) was 2 to 49 µM and the IC50 (MDA-MB-468) was 2 to 49 µM. For the same molecule, the IC50 (K562) was 2 to 49 µM, the IC50 (MOLT-4) was 2 to 49 µM and the IC50 (SF-268) was 2 to 49 µM. For the same molecule, the IC50 (HCT-15) was 18 µM, the IC50 (Hs-578T) was 20 µM and the IC50 (HCT-116) was 18 µM. The IC50 (BT-549) was 2 to 49 µM, the IC50 (UO-31) was 2 to 49 µM and the IC50 (SNB-19) was 2 to 49 µM. It also gave an IC50 (SR) of 2 to 49 µM, an IC50 (NCI/ADR-RES) of 20 µM and an IC50 (A498) of 2 to 49 µM. For the same molecule, the IC50 (UACC-62) was 24 µM, the IC50 (CAKI-1) was 2 to 49 µM and the IC50 (MCF7) was 20 µM. The IC50 (SF-295) was 2 to 49 µM.
